# Source: publication PMC4865847, “Putative histidine kinase inhibitors with antibacterial effect against multi-drug resistant clinical isolates identified by in vitro and in silico screens” (Scientific Reports, 2016)
# Like-named read-outs stand apart in the source and are kept apart here. Marks after values point to notes of the source that are not given here.
# Assays:
# [1] = test system: Staphylococcus aureus; assay: Antibacterial susceptibility testing (MIC/MBC), S. aureus; assay type: cell-based; settings: Staphylococcus aureus; for MBC: read-out: MBC S. aureus DSM 20231
# Method: (§1) Minimal inhibitory concentrations (MICs) were determined following a standard double-dilution method. […] For S. pneumoniae MICs were determined by adapting the standard double-dilution method to anaerobic conditions and of this microorganism (use of Todd Hewitt Yeast extract with 200 U/mL of catalase and continuous monitoring of growth).
# [2] = test system: Staphylococcus epidermidis; assay: Antibacterial susceptibility testing (MIC/MBC), S. epidermidis; assay type: cell-based; settings: for MBC / MIC: Staphylococcus epidermidis
# Method: as §1
# [3] = test system: Klebsiella pneumoniae; assay: Antibacterial susceptibility testing (MIC), K. pneumoniae; assay type: cell-based; settings: Klebsiella pneumoniae, ATCC700603, strain ATCC 700603
# Method: (§2) Bacterial strains used in this study for antibacterial susceptibility testing (Table S5) were propagated using standard microbiological procedures. Minimal inhibitory concentrations (MICs) were determined following a standard double-dilution method. MICs were recorded as the lowest concentration of the compound where no visible growth was observed. After plating the dilutions around the MIC or growing them in fresh MH media, minimal bactericidal concentration (MBC) was recorded as the lowest concentration of the compound at which no colonies were formed or no growth was observed, respectively. For S. pneumoniae MICs were determined by adapting the standard double-dilution method to anaerobic conditions and of this microorganism (use of Todd Hewitt Yeast extract with 200 U/mL of catalase and continuous monitoring of growth).
# [4] = target: T1, S. pneumoniae WalK (Streptococcus pneumoniae, UniProt Q8DPL8); assay: In vitro autophosphorylation kinase assay with γ-32P-ATP, WalK; assay type: biochemical; settings: for IC50: autophosphorylation, one time point (30 sec), 10% DMSO
# T1 construct: WalK (amino acids from 208 to 449); N-terminal His6-3C site of vector pOPINF (own knowledge of the vector); made in house; host or cells: E. coli RIL
# Method: (§3) To evaluate the inhibitory capacity of selected hits from DSF, SBVS and LBSS in vitro autophosphorylation kinase assays with γ-^32P-ATP were performed as previously described. Ligands were dissolved in 100% DMSO. […] Controls lacking ligands contained an equal concentration of DMSO. Inhibition of autophosphorylation was determined by incubating 0.12 mg/ml (≈4 μM) HK and up to 20 mM fragment in kinase buffer (50 mM Tris HCl, pH 8.5, 50 mM KCl, 5 mM MgCl2, 0.5 mM EDTA and 0.1 mM DTT). Autophosporylation reactions were initiated by addition of 0.1 μCi/μl γ-^32P-ATP containing from 0.03 to 0.06 μM ATP (final concentrations). Autophosphorylation was quenched with 2xSDS-PAGE sample buffer supplemented with 50 mM EDTA. […] After electrophoresis, the bottoms of the gels were removed to lower the background from the unincorporated radiolabeled ATP. Gels were dried without staining on a Bio-Rad Gel Air drying system and the phosphorylated protein was quantified by phosphor-imaging. Prism GraphPad was used for curve fitting and statistical analysis.
# [5] = test system: Pseudomonas aeruginosa; assay: Antibacterial susceptibility testing (MIC), P. aeruginosa; assay type: cell-based; settings: Pseudomonas aeruginosa, ATCC27853; strain ATCC 27853
# Method: as §2
# [6] = test system: Streptococcus suis; assay: Antibacterial susceptibility testing (MIC), S. suis; assay type: cell-based; settings: Streptococcus suis, read-out: MIC Streptococcus suis 3881/S10, strain 3881/S10
# Method: as §2
# [7] = test system: Stenotrophomonas maltophilia; assay: Antibacterial susceptibility testing (MIC), S. maltophilia; assay type: cell-based; settings: clinical isolate B32/1, read-out: MIC S. maltophilia B32/1
# Method: as §2
# [8] = test system: Streptococcus pneumoniae; assay: Antibacterial susceptibility testing (MIC), S. pneumoniae; assay type: cell-based; settings: strain 49619
# Method: as §2
# [9] = test system: Acinetobacter baumannii; assay: Antibacterial susceptibility testing (MIC), A. baumannii; assay type: cell-based; settings: MDR clinical isolate NM8, read-out: MIC A. baumannii NM8
# Method: as §2
# [10] = Hemolysis assay; assay type: cell-based; settings: human
# Method: Hemolytic activity against human erythrocytes taken from a healthy donor was measured as previously described. The hemolysis experiments were carried out in accordance with the guidelines of the United Arab Emirates University (UAEU) Research Ethics Review Board. All experimental protocols were approved by the Research Ethics Review Board of UAEU and informed consent was obtained from all donors.
# [11] = test system: Escherichia coli; assay: Antibacterial susceptibility testing (MIC/MBC), E. coli; assay type: cell-based; settings: Escherichia coli
# Method: as §1
# [12] = target: T2, E. coli PhoR (PhoR^E) (Escherichia coli, UniProt P08400); assay: In vitro autophosphorylation kinase assay with γ-32P-ATP, PhoR^E; assay type: biochemical; settings: autophosphorylation, one time point (30 sec), 10% DMSO
# T2 construct: The catalytic portion (DHp and CA domain) of E. coli PhoR (PhoR^E); made in house; host or cells: E. coli RIL
# Method: as §3
# [13] = Solubility in kinase buffer; assay type: physicochemical; settings: kinase buffer with 10% DMSO, pH 8.5, aqueous with cosolvent or surfactant or cyclodextrin, kinetic from dmso stock; kinase buffer in the presence of 10% DMSO; read-out: concentration above which not soluble / reduced solubility in kinase buffer
# [14] = target: T3, T. maritima HK853 (Thermotoga maritima, UniProt Q9WZV7); assay: In vitro autophosphorylation kinase assay with γ-32P-ATP, HK853; assay type: biochemical
# T3 sequence (Q9WZV7 232-489): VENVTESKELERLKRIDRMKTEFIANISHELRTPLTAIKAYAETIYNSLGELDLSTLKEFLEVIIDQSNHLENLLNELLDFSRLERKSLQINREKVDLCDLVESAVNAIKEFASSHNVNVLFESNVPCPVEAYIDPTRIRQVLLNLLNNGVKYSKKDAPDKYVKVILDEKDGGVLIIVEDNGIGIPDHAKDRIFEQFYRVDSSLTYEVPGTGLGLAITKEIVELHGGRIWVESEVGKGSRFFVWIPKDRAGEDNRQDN
# Method: (§4) To evaluate the inhibitory capacity of selected hits from DSF, SBVS and LBSS in vitro autophosphorylation kinase assays with γ-^32P-ATP were performed as previously described. Ligands were dissolved in 100% DMSO. […] Controls lacking ligands contained an equal concentration of DMSO. Inhibition of autophosphorylation was determined by incubating 0.12 mg/ml (≈4 μM) HK and up to 20 mM fragment in kinase buffer (50 mM Tris HCl, pH 8.5, 50 mM KCl, 5 mM MgCl2, 0.5 mM EDTA and 0.1 mM DTT). Autophosporylation reactions were initiated by addition of 0.1 μCi/μl γ-^32P-ATP containing from 0.03 to 0.06 μM ATP (final concentrations). Autophosphorylation was quenched with 2xSDS-PAGE sample buffer supplemented with 50 mM EDTA. Samples were applied without heating to 15% (w/v) Tris-glycine SDS-polyacrylamide gels. After electrophoresis, the bottoms of the gels were removed to lower the background from the unincorporated radiolabeled ATP. Gels were dried without staining on a Bio-Rad Gel Air drying system and the phosphorylated protein was quantified by phosphor-imaging. Prism GraphPad was used for curve fitting and statistical analysis.
# [15] = target: T4, S. aureus PhoR (PhoR^S) (Staphylococcus aureus, UniProt Q2FXN7); assay: Aggregation analysis by native-PAGE, PhoR^S; settings: 2 mM (S5 and S6 5 mM), 10% DMSO
# Method: (§5) E. coli PhoR and EnvZ, and S. aureus PhoR ([…], final concentration) were prepared in kinase buffer. […] DMSO in the assays was maintained to a final concentration 10% (v/v). After 30 min of incubation at room temperature Native polyacrylamide gel electrophoresis (Native-PAGE) loading buffer was added and samples loaded. Coomassie blue staining was used for protein visualization.
# [16] = target: T2, E. coli PhoR (PhoR^E); assay: Aggregation analysis by native-PAGE, PhoR^E; settings: 2 mM (S5 and S6 5 mM), 10% DMSO
# Method: as §5
# [17] = target: T4, S. aureus PhoR (PhoR^S); assay: In vitro autophosphorylation kinase assay with γ-32P-ATP, PhoR^S; assay type: biochemical; settings: IC50 PhoR^S, autophosphorylation, one time point (30 sec), 10% DMSO
# Method: as §4
# [18] = strain CFT 073, read-out: MIC E. coli CFT 073
# T1 sequence (Q8DPL8 208-449): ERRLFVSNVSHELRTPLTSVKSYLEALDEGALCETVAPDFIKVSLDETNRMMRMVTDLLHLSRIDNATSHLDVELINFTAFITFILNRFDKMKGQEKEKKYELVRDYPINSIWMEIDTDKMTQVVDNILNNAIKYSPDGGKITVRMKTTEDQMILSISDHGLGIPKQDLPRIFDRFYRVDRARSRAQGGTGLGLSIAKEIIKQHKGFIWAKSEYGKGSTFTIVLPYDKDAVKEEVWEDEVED
# T2 sequence (P08400 210-425): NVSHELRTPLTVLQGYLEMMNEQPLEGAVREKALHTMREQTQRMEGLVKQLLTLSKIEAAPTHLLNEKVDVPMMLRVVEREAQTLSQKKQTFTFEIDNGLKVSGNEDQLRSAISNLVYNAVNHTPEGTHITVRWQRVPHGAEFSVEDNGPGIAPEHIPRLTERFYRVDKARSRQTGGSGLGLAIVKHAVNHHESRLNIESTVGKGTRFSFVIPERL
# T4 sequence (Q2FXN7 entry or part of it): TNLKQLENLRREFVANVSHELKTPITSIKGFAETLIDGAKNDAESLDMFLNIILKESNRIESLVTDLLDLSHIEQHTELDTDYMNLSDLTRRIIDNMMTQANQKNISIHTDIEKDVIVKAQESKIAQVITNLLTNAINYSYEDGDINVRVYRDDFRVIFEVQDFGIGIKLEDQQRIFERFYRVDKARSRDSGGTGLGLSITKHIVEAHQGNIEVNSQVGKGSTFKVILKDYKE
structure (smiles),measurement,setting,value
Nc1nc(-c2ccccc2Cl)cs1 [F1.6],MIC,"[1]; ATCC reference strain 25293, read-out: MIC S. aureus 25293",250 µg/mL
same,MBC,"[1]; DSM20231, strain DSM 20231",250 µg/mL
same,MIC,"[1]; MRSA clinical isolate 127/08, read-out: MIC S. aureus 127/08",250 µg/mL
same,MIC,"[1]; MRSA clinical isolate 145/08, read-out: MIC S. aureus 145/08",250 µg/mL
same,MIC,"[1]; MRSA clinical isolate 274/08, read-out: MIC S. aureus 274/08",500 µg/mL
same,MIC,"[1]; MRSA, MRSA clinical isolate S908, read-out: MIC S. aureus S908",500 µg/mL
same,MIC,"[1]; MRSA, MRSA clinical isolate T4/6, read-out: MIC S. aureus T4/6",250 µg/mL
same,MIC,"[1]; MRSA, MRSA clinical isolate V4180, read-out: MIC S. aureus V4180",> 500 µg/mL
same,MIC,"[1]; MRSA, summary over strains, read-out: MICs for the MRSA strains and S. aureus 25293",125 to 500 µg/mL
same,MBC,"[2]; DSM20044, strain DSM 20044",500 µg/mL
same,MIC,"[2]; clinical isolate T7/3, read-out: MIC S. epidermidis T7/3",125 µg/mL
same,MIC,"[2]; clinical isolate T37/8, read-out: MIC S. epidermidis T37/8",> 500 µg/mL
same,MIC,"[2]; clinical isolate T6119, read-out: MIC S. epidermidis T6119",> 500 µg/mL
same,MIC,"[2]; strain RP62A (biofilm producer), read-out: MIC S. epidermidis RP62A",> 500 µg/mL
same,MIC,"[2]; strain RP62A/1 (non-biofilm producer), read-out: MIC S. epidermidis RP62A/1",> 500 µg/mL
same,MIC,"[2]; summary over clinical isolates, read-out: MICs for S. epidermidis clinical isolates",125 µg/mL
same,MIC,[3],> 500 µg/mL
same,inhibition at 2000 µM,"[4]; 2 mM, 30 sec, compared to negative control",> 50%
same,IC50,[4]; read-out: IC50 WalK,< 2000 µM
same,MIC,[5],> 500 µg/mL
same,MIC,[6],> 500 µg/mL
same,MIC,[7],> 500 µg/mL
same,MIC,[8],256 µg/mL
same,MIC,[9],> 500 µg/mL
same,HC50,[10],> 500 µg/mL
same,MIC,"[11]; ATCC25276, strain ATCC 25276, read-out: MIC E. coli ATCC 25276",> 500 µg/mL
same,MIC,[11]; [18],> 500 µg/mL
same,IC50,[12]; read-out: IC50 PhoR^E,> 2000 µM
CCC(Nc1cccc(NC(C)=O)c1)c1ccc(F)cc1 (stereo not drawn) [S5],solubility,[13],≤ 1300 µM
same,MBC,"[1]; DSM20231, strain DSM 20231",> 500 µg/mL
same,MIC,"[1]; DSM20231, strain DSM 20231, read-out: MIC S. aureus DSM 20231",> 500 µg/mL
same,IC50,[14],> 5000 µM
same,MBC,"[2]; DSM20044, strain DSM 20044",> 500 µg/mL
same,MIC,"[2]; DSM20044, strain DSM 20044, read-out: MIC S. epidermidis DSM 20044",500 µg/mL
same,MIC S. epidermidis DSM 20044,[2]; strain DSM 20044,500^# μg/ml
same,IC50,[4]; IC50 WalK,> 1000 µM
same,"HK aggregation, PhoR^S",[15],do not cause HK aggregation
same,"HK aggregation, PhoR^E",[16],do not cause HK aggregation
same,MBC,"[11]; strain CFT 073, read-out: MBC E. coli CFT 073",> 500 µg/mL
same,MIC,[11]; [18],> 500 µg/mL
same,IC50,[12]; IC50 PhoR^E,~1000 µM
same,IC50,[17],~1000 µM
